# Test results from patent US12479895B2, “C-terminal CDNF and MANF fragments, pharmaceutical compositions comprising same and uses thereof” (MyNeuroCure Oy, priority 2018, dated 2025).
# B1: KYDKQIDLSTVDLKKLRVKELKKILDDWGETCKGCAEKSDYIRKINELMPKYAPKAASARTDL (protein, listed as Homo sapiens)
# chain: KYDKQIDLSTVDLKKLRVKELKKILDDWGETCKGCAEKSDYIRKINELMPKYAPKAASARTDL
# Tests used:
# rat 6-OHDA model of PD = experiment: Neurorestoration study in 6-OHDA model of PD in rats; type: in vivo
# ER stressed SCG neurons = experiment: Survival of tunicamycin-treated (ER stressed) SCG sympathetic neurons after microinjection; type: cell-based, mice; settings: for survived neurons as % compared to neurons grown in the presence of NGF: microinjected into cytoplasm, CDNF (400); for Fold change of survived neurons compared to neurons injected with PBS: data of Table 1 divided by values of PBS
# Procedure, shortened: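 Newborn mouse SCG neurons grown 5-6 days with 30 ng/ml NGF, then microinjected with CDNF (FL or C-terminal) plasmids (10 ng/ul, EGFP reporter) or proteins (200 ng/ul, Dextran Texas Red). Tunicamycin (2 μM) added next day. Fluorescent survivors counted blindly after 3 days as % of initial; compared with vector or PBS (ANOVA/Dunnett).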
# dopamine neurons = experiment: Survival of TH-positive dopamine neurons in dissociated midbrain floor cultures; type: cell-based, mouse; settings: for survived neurons as % compared to neurons grown in the presence of GDNF / protection of dopaminergic neurons in culture (result in words): 5 days; for protection of dopaminergic neurons in culture (result in words): added to the culture medium, TH-positive neurons counted; for Fold change of survived neurons compared to neurons grown without growth factors: data of Table 3 divided by values of no factor
# Procedure, shortened: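 Dissociated E13.5 NMRI mouse midbrain floor neurons grown five days in DMEM/F12 with N2, with polypeptides at a range of concentrations, GDNF (100 ng/ml), or nothing. TH-immunopositive neurons were counted by imaging. Values are a percentage of GDNF-maintained TH-positive neurons, as mean ± SEM from at least three independent cultures.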
# E14 dopamine neurons = experiment: Internalization experiment on dopaminergic neurons; type: cell-based, Mouse; settings: 30,000 cpm of iodinated protein, 37° C., 2 hr, acid wash
# Method: Mouse E13.5 dopamine neurons grown on the 24 well plate in culture were incubated with 30,000 cpm of iodinated CDNF or C-CDNF per well at 37° C. 2 hr. The cells were transferred to ice and washed once with 0.5 ml of the ice cold media. Then cells were transferred to Eppendorf tubes and washed at 4° C. once with 0.2M acetic acid, 0.5M NaCl, pH 2.8. After centrifugation at 1000 g for 10 min cells were dissolved in 0.5 ml of 0.5 N NaOH and counted on the gamma counter.
# [1] = test system: mouse beta cell proliferation; experiment: Beta cell proliferation assay; type: cell-based; settings: mouse islets cultured in vitro for 5 days
# Method: Islets from female, virgin 8 weeks old C57bl6Rcc mice were isolated. Islets were recovered o/n in growth medium and the next day equal numbers of islets/well (70/well) were treated for 5 days with placental lactogen (PL 500 ng/ml), C-MANF, or MANF. Half of the medium was changed daily to fresh medium with growth factors. Edu, a nucleoside analog alternatively to BrdU (Click-iT® Edu proliferation kit, Invitrogen) was added 48 hrs prior to islet harvesting. Islets were broken with trypsin and centrifuged onto glass slides in cytocentrifuge. Cells were fixed after cytospins and proliferating cells stained with Click-iT AlexaFluor azide color reagent, followed by insulin staining (guinea-pig 1:200, Abcam, Cambridge, UK) o/n at +4° C. to detect beta cells. Cells were washed and stained with secondary antibodies conjugated with Alexa Fluor® 488 (1:400, Molecular Probes, Life Technologies, CA, USA). […] Twelve images (10× magnification) were acquired with Fluorescence Zeiss Axiolmager M2 482 epifluorescence microscope equipped with 40×/Plan-Apochromat/0.95 Corr M27 and 63×/Plan-Apochromat/1.40 Oil/M27 and 483 AxioCam HRm camera using AxioVision4 software and analysed by Image Pro Plus software (Media Cybernetics, Bethesda, MD, USA) to quantify number of DAPI-positive nuclei. The relative numbers of proliferating beta cells were quantified and compared to wells of three to five repeats/treatment.
# [2] = rat, in vivo, sc
# Method: CDNF, C-CDNF and C-MANF were iodinated with ^125I-Na using the lactoperoxidase method. The protein in question was dissolved in 30 μl of 0.25 M phosphate buffer, pH 7.5, and mixed with ^125I-Na (1 mCi/2.8 μl; 1 mCi=37 mBq; GE Healthcare). The reaction was started by adding lactoperoxidase 10 μl of 50 μg/ml and 0.05% H2O2. The mixture was incubated at room temperature for 20 min and the reaction was stopped by adding 3 volumes of 0.1 M phosphate buffer, pH 7.5, containing 0.1 M NaI, 0.42 M NaCl, and then 25 μl of 2.5% BSA was added. Free iodine and iodinated protein were separated by gel filtration on Sephadex G-25 columns (PM10; GE Healthcare). For column equilibrium and elution, 0.1 M phosphate buffer, pH 7.5, with 1% BSA was used. The iodinated growth factors were sometimes concentrated by using YM-10 Centricon columns (Millipore). The specific activity of ^125I-labeled CDNF, C-CDNF and C-MANF was measured on the Wizard 3 1480 Automatic Gamma Counter (Perkin Elmer, Wallac) and was about 10^8 cpm/μg protein. The labelled protein were kept at 4° C. and used within 3 weeks after labelling.
# ^125I-CDNF, ^125I C-CDNF or ^125I C-MANF (all proteins at 10^6 cpm in 10 μl) were injected subcutaneously to adult male Wistar rats. […] Radioactivity was analyzed in different brain regions by gamma counter. […] The differences between groups were analyzed ANOVA followed by Tukey-Kramers post hoc test.
molecule,measurement,setting,value
"CKGC [MANF4, reference compound]",efficacy on amphetamine-induced rotations,"rat 6-OHDA model of PD; infused into the striatum starting 2 weeks after 6-OHDA lesioning, rotations up to 12 weeks post lesioning",not effective
TLDLASVDLRKMRVAELKQILHSWGEECRACAE (listed as Homo sapiens) [pep15],protection against 6-OHDA-induced impairment in motor imbalance (amphetamine-induced rotational behavior),"rat 6-OHDA model of PD; subcutaneous injections 50 μg twice a week for 4 weeks starting two weeks post-lesion, p<0.001 vs vehicle",effective
same,survived neurons as % compared to neurons grown in the presence of NGF,"ER stressed SCG neurons; Table 1B (FIG. 16), exp1, tunicamycin 2 μM, counted after 3 days",70.17 % NGF
same,survived neurons as % compared to neurons grown in the presence of NGF,"ER stressed SCG neurons; Table 1B (FIG. 16), exp2, tunicamycin 2 μM, counted after 3 days",61.81 % NGF
same,survived neurons as % compared to neurons grown in the presence of NGF,"ER stressed SCG neurons; Table 1B (FIG. 16), exp3, tunicamycin 2 μM, counted after 3 days",71.42 % NGF
same,rescue of ER stressed SCG neurons (result in words),"ER stressed SCG neurons; protein or peptide microinjected into the cytoplasm, tunicamycin 2 μM, living fluorescent neurons counted after 3 days",rescue
same,survived neurons as % compared to neurons grown in the presence of GDNF,"dopamine neurons; Table 3B (FIG. 17), AVG, 1 ng/ml",73.72 % GDNF
same,survived neurons as % compared to neurons grown in the presence of GDNF,"dopamine neurons; Table 3B (FIG. 17), AVG, 10 ng/ml",87.03 % GDNF
same,survived neurons as % compared to neurons grown in the presence of GDNF,"dopamine neurons; Table 3B (FIG. 17), AVG, 100 ng/ml",93.53 % GDNF
same,survived neurons as % compared to neurons grown in the presence of GDNF,"dopamine neurons; Table 3B (FIG. 17), AVG, 1000 ng/ml",86.15 % GDNF
same,protection of dopaminergic neurons in culture (result in words),dopamine neurons,best protective effect
VDLRKMRVAELKQILHSWGEECRACAEKTDYVNLIQELAPKYAATHPKTEL (listed as Homo sapiens) [pep5],survived neurons as % compared to neurons grown in the presence of NGF,"ER stressed SCG neurons; Table 1A (FIG. 14), AVG of exp1-2, tunicamycin 2 μM",81.78 % NGF
same,survived neurons as % compared to neurons grown in the presence of NGF,"ER stressed SCG neurons; Table 1A (FIG. 14), exp1, tunicamycin 2 μM, counted after 3 days",86.36 % NGF
same,survived neurons as % compared to neurons grown in the presence of NGF,"ER stressed SCG neurons; Table 1A (FIG. 14), exp2, tunicamycin 2 μM, counted after 3 days",77.19 % NGF
same,Fold change of survived neurons compared to neurons injected with PBS,"ER stressed SCG neurons; Table 2, AVG",2.23 Fold to PBS
same,Fold change of survived neurons compared to neurons injected with PBS,"ER stressed SCG neurons; Table 2, exp1",2.52 Fold to PBS
same,Fold change of survived neurons compared to neurons injected with PBS,"ER stressed SCG neurons; Table 2, exp2",1.94 Fold to PBS
same,survived neurons as % compared to neurons grown in the presence of GDNF,"dopamine neurons; Table 3A (FIG. 15), AVG, 1 ng/ml",64.92 % GDNF
same,survived neurons as % compared to neurons grown in the presence of GDNF,"dopamine neurons; Table 3A (FIG. 15), AVG, 10 ng/ml",76.19 % GDNF
same,survived neurons as % compared to neurons grown in the presence of GDNF,"dopamine neurons; Table 3A (FIG. 15), AVG, 100 ng/ml",73.84 % GDNF
same,survived neurons as % compared to neurons grown in the presence of GDNF,"dopamine neurons; Table 3A (FIG. 15), AVG, 1000 ng/ml",65.13 % GDNF
same,survived neurons as % compared to neurons grown in the presence of GDNF,"dopamine neurons; Table 3A (FIG. 15), exp1, 1 ng/ml",65.24 % GDNF
same,survived neurons as % compared to neurons grown in the presence of GDNF,"dopamine neurons; Table 3A (FIG. 15), exp1, 10 ng/ml",61.71 % GDNF
same,survived neurons as % compared to neurons grown in the presence of GDNF,"dopamine neurons; Table 3A (FIG. 15), exp1, 100 ng/ml",59.82 % GDNF
same,survived neurons as % compared to neurons grown in the presence of GDNF,"dopamine neurons; Table 3A (FIG. 15), exp1, 1000 ng/ml",59.11 % GDNF
same,survived neurons as % compared to neurons grown in the presence of GDNF,"dopamine neurons; Table 3A (FIG. 15), exp2, 1 ng/ml",59.23 % GDNF
same,survived neurons as % compared to neurons grown in the presence of GDNF,"dopamine neurons; Table 3A (FIG. 15), exp2, 10 ng/ml",82.61 % GDNF
same,survived neurons as % compared to neurons grown in the presence of GDNF,"dopamine neurons; Table 3A (FIG. 15), exp2, 100 ng/ml",75.53 % GDNF
same,survived neurons as % compared to neurons grown in the presence of GDNF,"dopamine neurons; Table 3A (FIG. 15), exp2, 1000 ng/ml",58.84 % GDNF
same,survived neurons as % compared to neurons grown in the presence of GDNF,"dopamine neurons; Table 3A (FIG. 15), exp3, 1 ng/ml",70.31 % GDNF
same,survived neurons as % compared to neurons grown in the presence of GDNF,"dopamine neurons; Table 3A (FIG. 15), exp3, 10 ng/ml",84.24 % GDNF
same,survived neurons as % compared to neurons grown in the presence of GDNF,"dopamine neurons; Table 3A (FIG. 15), exp3, 100 ng/ml",86.17 % GDNF
same,survived neurons as % compared to neurons grown in the presence of GDNF,"dopamine neurons; Table 3A (FIG. 15), exp3, 1000 ng/ml",77.44 % GDNF
same,Fold change of survived neurons compared to neurons grown without growth factors,"dopamine neurons; Table 4, AVG, 1 ng/ml",1.06 fold
same,Fold change of survived neurons compared to neurons grown without growth factors,"dopamine neurons; Table 4, AVG, 10 ng/ml",1.23 fold
same,Fold change of survived neurons compared to neurons grown without growth factors,"dopamine neurons; Table 4, AVG, 100 ng/ml",1.19 fold
same,Fold change of survived neurons compared to neurons grown without growth factors,"dopamine neurons; Table 4, AVG, 1000 ng/ml",1.05 fold
same,Fold change of survived neurons compared to neurons grown without growth factors,"dopamine neurons; Table 4, exp1, 1 ng/ml",1.14 fold
same,Fold change of survived neurons compared to neurons grown without growth factors,"dopamine neurons; Table 4, exp1, 10 ng/ml",1.08 fold
same,Fold change of survived neurons compared to neurons grown without growth factors,"dopamine neurons; Table 4, exp1, 100 ng/ml",1.05 fold
same,Fold change of survived neurons compared to neurons grown without growth factors,"dopamine neurons; Table 4, exp1, 1000 ng/ml",1.03 fold
same,Fold change of survived neurons compared to neurons grown without growth factors,"dopamine neurons; Table 4, exp2, 1 ng/ml",0.94 fold
same,Fold change of survived neurons compared to neurons grown without growth factors,"dopamine neurons; Table 4, exp2, 10 ng/ml",1.31 fold
same,Fold change of survived neurons compared to neurons grown without growth factors,"dopamine neurons; Table 4, exp2, 100 ng/ml",1.20 fold
same,Fold change of survived neurons compared to neurons grown without growth factors,"dopamine neurons; Table 4, exp2, 1000 ng/ml",0.93 fold
same,Fold change of survived neurons compared to neurons grown without growth factors,"dopamine neurons; Table 4, exp3, 1 ng/ml",1.09 fold
same,Fold change of survived neurons compared to neurons grown without growth factors,"dopamine neurons; Table 4, exp3, 10 ng/ml",1.30 fold
same,Fold change of survived neurons compared to neurons grown without growth factors,"dopamine neurons; Table 4, exp3, 100 ng/ml",1.33 fold
same,Fold change of survived neurons compared to neurons grown without growth factors,"dopamine neurons; Table 4, exp3, 1000 ng/ml",1.20 fold
^125I-CDNF: CDNF iodinated with 125I-Na using the lactoperoxidase method,internalization into dopamine neurons (radioactivity inside the cells),E14 dopamine neurons,but not ^125I-CDNF is efficiently internalized
B1,mouse beta cell proliferation (incorporation of Click EdU),[1],stimulates
same,protection of dopaminergic neurons in culture (result in words),dopamine neurons,protects
same,protection of dopaminergic neurons in culture (result in words),dopamine neurons; listed as C-terminal MANF fragment,potently protected
same,blood-brain-barrier penetration,[2],capable of penetrating
